{"source": "patent US8604217B2", "about": "“Compound, a process for its preparation, a pharmaceutical composition, use of a compound, a method for modulating or regulating serine/threonine kinases and a serine/threonine kinases modulating agent” (Selvita S.A., priority 2009, dated 2013)", "test_in_all_cases": "KinaseProfiler kinase panel", "assay_type_in_all_cases": "biochemical", "key": {"[1]": {"biological_target": "Flt3(h) (Homo sapiens (Human), UniProt P36888)"}, "[2]": {"biological_target": "CDK5/p35(h) (Homo sapiens (Human), UniProt Q00535)"}, "[3]": {"biological_target": "CDK2/cyclinA(h) (Homo sapiens (Human), UniProt P24941)"}, "[4]": {"biological_target": "PKG1α(h) (Homo sapiens (Human), UniProt Q13976)"}, "[5]": {"biological_target": "Mer(h) (Homo sapiens (Human), UniProt Q12866)"}, "[6]": {"biological_target": "TAO3(h) (Homo sapiens (Human), UniProt Q9H2K8)"}, "[7]": {"biological_target": "MSK2(h) (Homo sapiens (Human), UniProt O75676)"}, "[8]": {"biological_target": "IRAK4(h) (Homo sapiens (Human), UniProt Q9NWZ3)"}, "[9]": {"biological_target": "TAK1(h) (Homo sapiens (Human), UniProt O43318)", "sequence (O43318 1-303)": "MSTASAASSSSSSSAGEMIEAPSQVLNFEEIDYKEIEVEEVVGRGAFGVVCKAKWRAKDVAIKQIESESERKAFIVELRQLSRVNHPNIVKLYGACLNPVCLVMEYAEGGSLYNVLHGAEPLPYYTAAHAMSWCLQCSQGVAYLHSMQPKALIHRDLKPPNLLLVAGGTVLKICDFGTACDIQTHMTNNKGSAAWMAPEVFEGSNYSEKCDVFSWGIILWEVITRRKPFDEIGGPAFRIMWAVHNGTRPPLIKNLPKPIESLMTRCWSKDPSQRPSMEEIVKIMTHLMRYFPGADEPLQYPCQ"}, "[10]": {"biological_target": "PKD2(h) (Homo sapiens (Human), UniProt Q9BZL6)", "sequence (Q9BZL6 whole entry)": "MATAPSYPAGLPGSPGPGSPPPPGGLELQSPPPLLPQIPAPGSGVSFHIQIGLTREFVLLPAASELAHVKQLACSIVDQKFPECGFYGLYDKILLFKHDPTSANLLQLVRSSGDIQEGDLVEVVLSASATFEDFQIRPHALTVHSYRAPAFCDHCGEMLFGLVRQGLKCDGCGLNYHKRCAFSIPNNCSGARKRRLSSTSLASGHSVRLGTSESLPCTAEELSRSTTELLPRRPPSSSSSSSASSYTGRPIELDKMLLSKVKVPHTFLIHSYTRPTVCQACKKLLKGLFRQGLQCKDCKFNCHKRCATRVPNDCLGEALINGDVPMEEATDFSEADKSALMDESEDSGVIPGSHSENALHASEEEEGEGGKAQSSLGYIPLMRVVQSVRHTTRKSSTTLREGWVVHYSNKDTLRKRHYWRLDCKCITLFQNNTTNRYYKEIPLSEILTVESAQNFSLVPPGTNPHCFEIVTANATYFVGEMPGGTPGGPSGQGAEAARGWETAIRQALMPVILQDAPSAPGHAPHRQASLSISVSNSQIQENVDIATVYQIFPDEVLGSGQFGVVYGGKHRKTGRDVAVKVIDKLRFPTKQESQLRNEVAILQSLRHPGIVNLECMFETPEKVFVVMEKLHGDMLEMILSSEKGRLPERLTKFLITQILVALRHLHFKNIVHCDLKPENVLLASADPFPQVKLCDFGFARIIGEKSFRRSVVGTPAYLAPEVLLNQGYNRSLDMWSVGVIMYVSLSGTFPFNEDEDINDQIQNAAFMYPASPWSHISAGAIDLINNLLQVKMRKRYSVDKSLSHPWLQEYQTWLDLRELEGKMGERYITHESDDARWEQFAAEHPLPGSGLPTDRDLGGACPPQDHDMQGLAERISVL"}, "[11]": {"biological_target": "CK1δ(h) (Homo sapiens (Human), UniProt P48730)"}, "[12]": {"biological_target": "Hck(h) activated (Homo sapiens (Human), UniProt P08631)"}, "[13]": {"biological_target": "SAPK3(h) (Homo sapiens (Human), UniProt P53778)"}, "[14]": {"biological_target": "PKA(h) (Homo sapiens (Human), UniProt P17612)"}, "[15]": {"biological_target": "BRK(h) (Homo sapiens (Human), UniProt Q13882)"}, "[16]": {"biological_target": "Hck(h) (Homo sapiens (Human), UniProt P08631)"}, "[17]": {"biological_target": "CHK2(I157T)(h) (Homo sapiens (Human), UniProt O96017, I157T)"}, "[18]": {"biological_target": "MAPK2(m) (Mus musculus (Mouse), UniProt P63085)"}, "[19]": {"biological_target": "TAO2(h) (Homo sapiens (Human), UniProt Q9UL54)"}, "[20]": {"biological_target": "ULK3(h) (Homo sapiens (Human), UniProt Q6PHR2)"}, "[21]": {"biological_target": "PAK6(h) (Homo sapiens (Human), UniProt Q9NQU5)"}, "[22]": {"biological_target": "ULK2(h) (Homo sapiens (Human), UniProt Q8IYT8)"}, "[23]": {"biological_target": "CK1γ3(h) (Homo sapiens (Human), UniProt Q9Y6M4)", "sequence (Q9Y6M4 whole entry)": "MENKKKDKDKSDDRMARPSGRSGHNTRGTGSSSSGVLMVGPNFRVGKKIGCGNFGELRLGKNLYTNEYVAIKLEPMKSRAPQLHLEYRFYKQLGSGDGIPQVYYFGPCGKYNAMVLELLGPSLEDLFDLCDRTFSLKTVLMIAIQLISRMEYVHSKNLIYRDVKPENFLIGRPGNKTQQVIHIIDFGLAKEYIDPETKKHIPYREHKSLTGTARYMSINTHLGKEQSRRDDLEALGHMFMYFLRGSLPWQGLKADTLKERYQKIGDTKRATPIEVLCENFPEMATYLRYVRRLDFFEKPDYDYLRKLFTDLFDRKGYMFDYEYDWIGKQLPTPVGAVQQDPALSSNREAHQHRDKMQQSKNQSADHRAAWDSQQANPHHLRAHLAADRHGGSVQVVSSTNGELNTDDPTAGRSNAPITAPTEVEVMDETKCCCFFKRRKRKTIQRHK"}, "[24]": {"biological_target": "EGFR(h) (Homo sapiens (Human), UniProt P00533)"}, "[25]": {"biological_target": "ErbB4(h) (Homo sapiens (Human), UniProt Q15303)"}, "[26]": {"biological_target": "FGFR2(h) (Homo sapiens (Human), UniProt P21802)"}, "[27]": {"biological_target": "IRR(h) (Homo sapiens (Human), UniProt P14616)", "sequence (P14616 27-1297)": "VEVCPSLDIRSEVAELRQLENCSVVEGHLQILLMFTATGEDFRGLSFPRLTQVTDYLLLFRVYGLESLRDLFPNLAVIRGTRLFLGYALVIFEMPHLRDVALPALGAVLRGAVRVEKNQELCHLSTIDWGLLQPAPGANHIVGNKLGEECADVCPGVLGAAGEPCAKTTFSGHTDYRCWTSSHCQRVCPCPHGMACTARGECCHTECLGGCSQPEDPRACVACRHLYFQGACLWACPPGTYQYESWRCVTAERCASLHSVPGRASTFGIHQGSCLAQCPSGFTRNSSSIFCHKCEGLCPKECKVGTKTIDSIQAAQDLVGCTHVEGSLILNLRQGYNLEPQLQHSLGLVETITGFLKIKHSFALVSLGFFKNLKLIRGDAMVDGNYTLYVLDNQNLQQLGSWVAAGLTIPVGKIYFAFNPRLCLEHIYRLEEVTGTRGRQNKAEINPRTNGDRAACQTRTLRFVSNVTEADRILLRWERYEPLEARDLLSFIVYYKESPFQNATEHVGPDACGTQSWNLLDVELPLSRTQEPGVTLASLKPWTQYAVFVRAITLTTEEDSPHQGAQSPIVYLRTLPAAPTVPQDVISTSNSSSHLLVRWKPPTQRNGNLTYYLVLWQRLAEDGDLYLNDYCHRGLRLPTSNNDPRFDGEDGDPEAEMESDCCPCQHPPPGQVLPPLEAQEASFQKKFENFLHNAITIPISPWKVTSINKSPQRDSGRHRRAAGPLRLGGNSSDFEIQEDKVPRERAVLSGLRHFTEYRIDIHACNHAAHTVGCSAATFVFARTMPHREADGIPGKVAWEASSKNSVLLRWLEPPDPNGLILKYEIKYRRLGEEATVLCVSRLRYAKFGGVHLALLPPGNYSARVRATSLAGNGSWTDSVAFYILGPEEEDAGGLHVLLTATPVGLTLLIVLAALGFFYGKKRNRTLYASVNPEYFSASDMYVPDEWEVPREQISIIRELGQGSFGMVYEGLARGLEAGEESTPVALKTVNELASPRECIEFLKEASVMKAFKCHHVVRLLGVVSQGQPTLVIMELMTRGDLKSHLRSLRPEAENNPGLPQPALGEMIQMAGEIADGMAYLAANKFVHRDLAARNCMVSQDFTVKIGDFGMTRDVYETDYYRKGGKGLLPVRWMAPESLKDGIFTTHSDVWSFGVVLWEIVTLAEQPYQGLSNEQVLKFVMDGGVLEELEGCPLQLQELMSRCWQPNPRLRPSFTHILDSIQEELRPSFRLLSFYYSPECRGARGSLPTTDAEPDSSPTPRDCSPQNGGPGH"}, "[28]": {"biological_target": "PRAK(h) (Homo sapiens (Human), UniProt Q8IW41)"}, "[29]": {"biological_target": "Fms(Y969C)(h) (Homo sapiens (Human), UniProt P07333, Y969C)"}, "[30]": {"biological_target": "MST3(h) (Homo sapiens (Human), UniProt Q9Y6E0)", "sequence (Q9Y6E0 whole entry)": "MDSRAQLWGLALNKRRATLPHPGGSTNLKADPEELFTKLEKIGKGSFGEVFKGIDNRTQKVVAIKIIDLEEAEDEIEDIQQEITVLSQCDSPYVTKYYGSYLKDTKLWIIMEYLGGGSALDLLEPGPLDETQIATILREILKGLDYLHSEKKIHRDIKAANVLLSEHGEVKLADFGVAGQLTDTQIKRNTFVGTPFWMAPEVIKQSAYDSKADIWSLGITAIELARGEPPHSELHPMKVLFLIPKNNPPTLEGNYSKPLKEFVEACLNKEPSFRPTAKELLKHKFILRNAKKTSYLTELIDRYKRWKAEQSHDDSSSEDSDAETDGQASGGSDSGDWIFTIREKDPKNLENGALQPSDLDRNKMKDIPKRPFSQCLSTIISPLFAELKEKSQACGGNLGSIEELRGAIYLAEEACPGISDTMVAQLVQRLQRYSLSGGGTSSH"}, "[31]": {"biological_target": "Abl (M351T)(h) (Homo sapiens (Human), UniProt P00519, M351T)"}, "[32]": {"biological_target": "Blk(m) (Mus musculus (Mouse), UniProt P16277)"}, "[33]": {"biological_target": "JNK1α1(h) (Homo sapiens (Human), UniProt P45983)"}, "[34]": {"biological_target": "Pyk2(h) (Homo sapiens (Human), UniProt Q14289)", "sequence (Q14289 whole entry)": "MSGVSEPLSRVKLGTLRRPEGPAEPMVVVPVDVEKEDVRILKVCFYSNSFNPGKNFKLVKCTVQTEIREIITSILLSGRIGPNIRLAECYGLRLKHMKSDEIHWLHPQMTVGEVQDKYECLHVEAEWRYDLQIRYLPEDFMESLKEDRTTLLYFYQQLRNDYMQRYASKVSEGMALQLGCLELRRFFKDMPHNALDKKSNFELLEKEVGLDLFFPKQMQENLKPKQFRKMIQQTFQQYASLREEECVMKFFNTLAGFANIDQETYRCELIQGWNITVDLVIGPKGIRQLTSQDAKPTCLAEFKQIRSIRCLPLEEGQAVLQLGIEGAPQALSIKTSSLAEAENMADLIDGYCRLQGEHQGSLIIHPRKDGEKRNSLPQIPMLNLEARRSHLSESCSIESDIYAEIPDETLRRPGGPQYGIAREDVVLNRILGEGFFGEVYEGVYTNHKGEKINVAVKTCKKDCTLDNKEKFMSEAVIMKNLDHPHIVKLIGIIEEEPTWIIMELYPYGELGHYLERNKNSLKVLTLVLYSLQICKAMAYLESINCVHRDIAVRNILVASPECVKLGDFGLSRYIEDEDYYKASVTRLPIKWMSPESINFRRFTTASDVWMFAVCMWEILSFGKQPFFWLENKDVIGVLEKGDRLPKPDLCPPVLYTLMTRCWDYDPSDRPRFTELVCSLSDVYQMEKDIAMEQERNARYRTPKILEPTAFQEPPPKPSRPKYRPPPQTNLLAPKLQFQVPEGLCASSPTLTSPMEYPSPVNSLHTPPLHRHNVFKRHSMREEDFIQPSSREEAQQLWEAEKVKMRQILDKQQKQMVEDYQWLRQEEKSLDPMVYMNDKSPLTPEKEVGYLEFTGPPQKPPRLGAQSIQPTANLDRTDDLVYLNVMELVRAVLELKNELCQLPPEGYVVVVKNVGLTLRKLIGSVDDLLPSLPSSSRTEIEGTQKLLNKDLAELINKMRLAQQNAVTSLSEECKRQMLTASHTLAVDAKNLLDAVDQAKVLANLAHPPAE"}, "[35]": {"biological_target": "TBK1(h) (Homo sapiens (Human), UniProt Q9UHD2)"}, "[36]": {"biological_target": "TLK2(h) (Homo sapiens (Human), UniProt Q86UE8)"}, "[37]": {"biological_target": "FGFR3(h) (Homo sapiens (Human), UniProt P22607)"}, "[38]": {"biological_target": "EphA2(h) (Homo sapiens (Human), UniProt P29317)"}, "[39]": {"biological_target": "SRPK1(h) (Homo sapiens (Human), UniProt Q96SB4)"}, "[40]": {"biological_target": "Plk1(h) (Homo sapiens (Human), UniProt P53350)", "sequence (P53350 whole entry)": "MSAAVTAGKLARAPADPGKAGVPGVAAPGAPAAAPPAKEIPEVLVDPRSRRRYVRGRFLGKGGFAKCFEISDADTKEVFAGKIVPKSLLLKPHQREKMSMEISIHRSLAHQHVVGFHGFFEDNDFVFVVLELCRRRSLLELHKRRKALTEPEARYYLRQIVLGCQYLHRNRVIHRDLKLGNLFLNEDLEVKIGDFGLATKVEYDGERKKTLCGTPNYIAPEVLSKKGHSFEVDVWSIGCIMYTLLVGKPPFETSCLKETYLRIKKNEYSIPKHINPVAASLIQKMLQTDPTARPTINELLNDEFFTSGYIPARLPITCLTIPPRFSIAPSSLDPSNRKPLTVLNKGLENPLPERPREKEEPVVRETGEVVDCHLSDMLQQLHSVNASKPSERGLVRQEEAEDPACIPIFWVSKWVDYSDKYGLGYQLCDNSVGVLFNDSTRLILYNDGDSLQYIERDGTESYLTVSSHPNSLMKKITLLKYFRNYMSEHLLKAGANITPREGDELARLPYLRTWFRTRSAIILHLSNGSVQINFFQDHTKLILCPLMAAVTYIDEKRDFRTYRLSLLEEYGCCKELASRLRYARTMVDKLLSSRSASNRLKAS"}}, "data": [{"smiles": "CCn1c(N2CCNCC2)nc2c(Br)c(Br)c(Br)c(Br)c21", "note": "[Compound 416, 4,5,6,7-tetrabromo-1-ethyl-2-(piperazin-1-yl)-1H-benzo[d]imidazole]", "values": [{"measurement": "remaining activity at 1 µM", "setting": "[1]", "value": 0, "unit": "%"}, {"measurement": "remaining activity at 1 µM", "setting": "[2]", "value": 2, "unit": "%"}, {"measurement": "remaining activity at 1 µM", "setting": "[3]", "value": 7, "unit": "%"}, {"measurement": "remaining activity at 1 µM", "setting": "[4]", "value": 7, "unit": "%"}, {"measurement": "remaining activity at 1 µM", "setting": "[5]", "value": 14, "unit": "%"}, {"measurement": "remaining activity at 1 µM", "setting": "[6]", "value": 14, "unit": "%"}, {"measurement": "remaining activity at 1 µM", "setting": "[7]", "value": 16, "unit": "%"}, {"measurement": "remaining activity at 1 µM", "setting": "[8]", "value": 52, "unit": "%"}, {"measurement": "remaining activity at 1 µM", "setting": "[9]", "value": 52, "unit": "%"}, {"measurement": "remaining activity at 1 µM", "setting": "[10]", "value": 58, "unit": "%"}, {"measurement": "remaining activity at 1 µM", "setting": "[11]", "value": 62, "unit": "%"}, {"measurement": "remaining activity at 1 µM", "setting": "[12]", "value": 63, "unit": "%"}, {"measurement": "remaining activity at 1 µM", "setting": "[13]", "value": 68, "unit": "%"}, {"measurement": "remaining activity at 1 µM", "setting": "[14]", "value": 70, "unit": "%"}, {"measurement": "remaining activity at 1 µM", "setting": "[15]", "value": 76, "unit": "%"}, {"measurement": "remaining activity at 1 µM", "setting": "[16]", "value": 79, "unit": "%"}, {"measurement": "remaining activity at 1 µM", "setting": "[17]", "value": 80, "unit": "%"}, {"measurement": "remaining activity at 1 µM", "setting": "[18]", "value": 82, "unit": "%"}, {"measurement": "remaining activity at 1 µM", "setting": "[19]", "value": 82, "unit": "%"}, {"measurement": "remaining activity at 1 µM", "setting": "[20]", "value": 84, "unit": "%"}, {"measurement": "remaining activity at 1 µM", "setting": "[21]", "value": 85, "unit": "%"}, {"measurement": "remaining activity at 1 µM", "setting": "[22]", "value": 88, "unit": "%"}, {"measurement": "remaining activity at 1 µM", "setting": "[23]", "value": 89, "unit": "%"}, {"measurement": "remaining activity at 1 µM", "setting": "[24]", "value": 89, "unit": "%"}, {"measurement": "remaining activity at 1 µM", "setting": "[25]", "value": 89, "unit": "%"}, {"measurement": "remaining activity at 1 µM", "setting": "[26]", "value": 91, "unit": "%"}, {"measurement": "remaining activity at 1 µM", "setting": "[27]", "value": 91, "unit": "%"}, {"measurement": "remaining activity at 1 µM", "setting": "[28]", "value": 91, "unit": "%"}, {"measurement": "remaining activity at 1 µM", "setting": "[29]", "value": 92, "unit": "%"}, {"measurement": "remaining activity at 1 µM", "setting": "[30]", "value": 93, "unit": "%"}, {"measurement": "remaining activity at 1 µM", "setting": "[31]", "value": 95, "unit": "%"}, {"measurement": "remaining activity at 1 µM", "setting": "[32]", "value": 97, "unit": "%"}, {"measurement": "remaining activity at 1 µM", "setting": "[33]", "value": 97, "unit": "%"}, {"measurement": "remaining activity at 1 µM", "setting": "[34]", "value": 97, "unit": "%"}, {"measurement": "remaining activity at 1 µM", "setting": "[35]", "value": 104, "unit": "%"}, {"measurement": "remaining activity at 1 µM", "setting": "[36]", "value": 104, "unit": "%"}, {"measurement": "remaining activity at 1 µM", "setting": "[37]", "value": 105, "unit": "%"}, {"measurement": "remaining activity at 1 µM", "setting": "[38]", "value": 106, "unit": "%"}, {"measurement": "remaining activity at 1 µM", "setting": "[39]", "value": 106, "unit": "%"}, {"measurement": "remaining activity at 1 µM", "setting": "[40]", "value": 117, "unit": "%"}]}]}
